Assay results published in the NIST ThermoML archive (doi:10.1016/j.jct.2015.05.002).

Assay: mn = molality of the nth substance listed, in mol/kg
Settings: 101.3 kPa, Liquid; for speed of sound: Frequency=3 MHz, Sing-around technique in a fixed-path interferometer; for mass density: Vibrating tube method

O=C[O-].[NH3+]CCCO [3-hydroxypropylammonium formate] + O
Settings | mass density, m1 = 0.1 [kg/m3] | mass density, m1 = 0.21 [kg/m3] | mass density, m1 = 0.3 [kg/m3] | mass density, m1 = 0.42 [kg/m3] | speed of sound, m1 = 0.1 [m/s] | speed of sound, m1 = 0.21 [m/s] | speed of sound, m1 = 0.3 [m/s] | speed of sound, m1 = 0.42 [m/s]
293.15 K | 999.816 | 1001.61 | 1003.08 | 1005.09 | 1489.6 | 1496.4 | 1502.6 | 1510.7
298.15 K | – | 1000.35 | – | 1003.64 | – | 1508.3 | – | 1520
303.15 K | – | 998.914 | – | 1002.15 | – | 1519.6 | – | 1530.5
308.15 K | – | 997.259 | – | 1000.45 | – | 1529.4 | – | 1540.3
313.15 K | – | 995.402 | – | 998.562 | – | 1538 | – | 1547.9
318.15 K | – | 993.291 | – | 996.504 | – | 1545 | – | 1554.3
